The values below come from article PMC4234457, “Primary porcine proximal tubular cells as an alternative to human primary renal cells in vitro: an initial characterization” (BMC Cell Biology, 2013).

Where a name gives a salt, the structure may show the parent alone. Read-outs that look alike come from different tables or passages of the source.

One data set deals with pOat1. The conditions noted are these: cited from earlier work; for Inhibition of pOat1-mediated PAH uptake: oocytes.
Another data set has as its system pOat3. The conditions noted are these: cited from earlier work; for Inhibitory effect on pOat3-mediated ES transport: oocytes.
For data set [1], the system named is primary porcine kidney cells (PKC). In words: MTT reduction cytotoxicity assay in PKC. The settings on record: for EC50: read-out: EC50 (cytotoxicity), 1-500 μM, positive control. As to the method: Cytotoxicity experiments using the MTT reduction assay as previously described, were conducted to estimate non-toxic concentrations for subsequent analyses. All chemicals and stock solutions (Tables 1 and 2) were sterilized by filtration (0.2 μm) prior to testing. […] Absorbance was read at 550 nm using a microplate reader (Infinite M200, Tecan, Crailsheim, Germany).
Conversely, in the transport induction experiments (prolonged substrate exposure/low concentrations, Table 2) cytotoxicity was determined after 24, 48, 72 and 96 hours of exposure. All assays were performed with the respective vehicle controls (Tables 1 and 2) and cadmium chloride as positive control.
Cytotoxicity data were calculated as means ± SEM from at least three independent replicate experiments conducted in technical duplicates, followed by a One-way ANOVA with a subsequent Dunnett’s multiple comparison test (P < 0.05).
On the technique in general: Tetrazolium dyes change colour on reduction, which living cells bring about.

A further data set deals with Oat1 or Oat3. Kind of data set: Transporter induction experiments (RT-PCR of transporter mRNA in PKC). Format: cell-based, porcine. As to the method: For transporter induction experiments, freshly isolated PKC cells were seeded (total of 2 × 10^4 cells cm^-2) on 6-well ThinCert PET tissue culture inserts in standard culture medium and medium was changed every 48 hours. […] After 48 hours of exposure, samples for RNA extraction were prepared by standard trypsin-EDTA treatment followed by washing with PBS. Resulting cell pellets were snap-frozen and stored at -80°C until use.
Total RNA was prepared from cell pellets and minced pieces of tissue (rat kidney and porcine kidney cortex) via the phenol-chloroform method using Trizol (Invitrogen, Karlsruhe, Germany). Concentration and quality was estimated via 260/280 nm values. Representative samples were tested for RNA integrity via denaturing electrophoresis. cDNA was prepared using 1 μg total RNA, Oligo (dT)18 and M-MuLV reverse transcriptase according to manufacturer’s instructions. PCR was performed using 2 μl cDNA sample, 2 × PCR Master Mix, specific primers (Table 3). Amplification was performed with an initial denaturation step at 92°C for 3 min followed by 30 cycles of 94°C for 60 sec, 58°C for 60 sec and 72°C for 60 sec and a final extension step at 72°C for 7 min.

Data set [2] concerns PKC. In words: Transport assays (kinetics): cellular uptake of radiolabelled PAH and MTX across BBM and BLM of PKC on filter inserts. Format: in vitro ADME, porcine. The settings on record: for Km: confluent PKC, 30 min incubation, mean ± SEM, n = 3. As to the method:
For transport studies, tightness of the cellular monolayers was inspected microscopically before use. Additionally, radiolabelled substrates were measured in the both chambers (above and below the cell layer) to determine cell layer leakiness. In case of lacking or reduced tightness of the monolayer, very high counts (dpm) were measured in the respective opposite compartment. These resulting counts (dpm) were several-magnitudes greater than those that could have been expected from potential transepithelial transport. Data from cell preparations with such apparent cell layer leakiness were omitted from calculation.
For kinetic data, raw transport data (dpm) were submitted to intra-assay normalization using the blanks described above and calculated using the following equation:
meandpm×totalvolume/countedvolume×60sec×specificactivity×proteincontent×assaytime=substratepmol/mg×min

Data set [3] concerns primary human proximal tubular cells. More on the design: method as in PMID 16997449. The conditions noted are these: cited from earlier work.
In a further data set the test system is hOAT3. The conditions noted are these: cited from earlier work.
A further data set deals with OAT3 (SLC22A8). More on the design: method as in supplement 1. The settings on record: Rat, cited from earlier work.
Data set [4] has as its system PKC. In words: Inhibition of cellular PAH uptake in PKC. The conditions noted are these: 50 μM PAH, inhibitor 1 mM, 10 min; for Reduction of PAH BBM uptake: Figure 3A.
Experimental: For transport studies, PKC were seeded (1 × 10^5 cells/cm^2) on 6-well PET filter inserts with 0.4 μm pore size. The use of filter inserts allows measurement of transport across the BLM (basolateral membrane) and the BBM (brushborder membrane) by addition of substrates to media in the lower and upper compartment, respectively. […] The cells were incubated at 37°C for the indicated times. […] Thereafter, cells were acidified with 1 M HCl and an aliquot was used for protein determination using the Bradford assay. 1 ml of medium from each compartment and of solubilized cells was placed into 10 ml scintillation cocktail and radioactivity was measured in a Beckman LS 6500 scintillation counter.
The next data set deals with hOAT1. The settings on record: hOAT1, MTX; cited from earlier work.
A further data set deals with hOAT4. The settings on record: hOAT4, MTX; cited from earlier work.
For the next data set, the system named is hMRP4. The settings on record: hMRP4, MTX; cited from earlier work.
Where [5] appears, read: PKC, 50 nM or 1 μM to basolateral compartment, 48 hours, RT-PCR.

A word on the Km: it is the concentration of substrate that gives half-maximal velocity. In general, EC50 refers to the concentration at which the effect is half-maximal.

Consider `O=C(O)CCCC(=O)O` [glutarate], for which, in the data set with pOat1 (0.5 mM), the “Inhibition of pOat1-mediated PAH uptake” value is “could be inhibited”. The “Inhibitory effect on pOat3-mediated ES transport” value (shortened to “Inhibitory effect”) in the data set on pOat3 is listed as “inhibitory effect”.

With `C[C@H](CCC(=O)NCCS(=O)(=O)O)[C@H]1CC[C@H]2[C@@H]3[C@H](O)C[C@@H]4C[C@H](O)CC[C@]4(C)[C@H]3C[C@H](O)[C@]12C` [taurocholic acid], the “Significant effects (cytotoxicity of potential transporter inducers)” value in data set [1] was “no”. In addition, the “Stimulatory effect on transporter mRNA expression” value (“Stimulatory effect” for short) in the data set on Oat1 or Oat3 was “none of the tested substances showed any stimulatory effect”.

Consider `Nc1ccc(C(=O)NCC(=O)O)cc1` [p-aminohippuric acid], for which the “Time to saturation of PAH uptake” value with PKC [2] (PKC, 50 μM substrate, Figure 2B) lay within 5 to 10 min. Also, in the data set on PKC [2] (PKC, PAH uptake, Figure 2A), the “BBM uptake compared to BLM uptake” value is given as “about 3 times”. In addition, the Michaelis-Menten constant (Km) is 187 ± 70.2 µM in the data set with PKC [2] (basolateral membrane, read-out: Km of PAH uptake across BLM); 58.8 ± 12.6 µM in the data set with PKC [2] (brushborder membrane, read-out: Km of PAH uptake across BBM); 36.6 ± 1.2 µM in [3] (primary human proximal tubular cells, read-out: BBM Km of PAH uptake); 57.5 ± 4.1 µM in data set [3] (primary human proximal tubular cells, read-out: BLM Km of PAH uptake); 3.7 µM in the data set with pOat1 (OAT1 (SLC22A6), Pig, ref supplement 1, 2, read-out: KM (PAH)); 3.75 ± 1.6 µM in the data set with pOat1 (pOat1 variant expressed in Xenopus laevis oocytes, read-out: apparent Km). For the same compound, the Michaelis constant (Km) in the data set on hOAT3 (OAT3 (SLC22A8), Human, ref supplement 1, read-out: KM (PAH)) was 50 to 100 µM; in the data set on OAT3 (SLC22A8) (ref supplement 1, read-out: KM (PAH)), 60 to 65 µM. In addition, the “Affinity of the other pOat1 variant” value in the data set with pOat1 (one pOat1 splice variant expressed in Xenopus laevis oocytes) is “did not show any affinity”.

On to `C[C@@H]1Cc2c(Cl)cc(C(=O)N[C@@H](Cc3ccccc3)C(=O)O)c(O)c2C(=O)O1` [ochratoxin A], for which, in the data set on PKC [4], the “Reduction of PAH BBM uptake” value was “up to 30%”.

In the case of `N[C@@H](Cc1cc(I)c(Oc2ccc(O)c(I)c2)c(I)c1)C(=O)O` [triiodothyronine], the “Stimulatory effect” value in the data set with Oat1 or Oat3 (setting [5]) is “none of the tested substances showed any stimulatory effect”.

On to `CN(Cc1cnc2nc(N)nc(N)c2n1)c1ccc(C(=O)N[C@@H](CCC(=O)O)C(=O)O)cc1` [methotrexate], for which the Cellular uptake entry in the data set on PKC [2] (PKC, radiolabelled substrate) is recorded as “negligible”. In addition, the Km was 80.4 ± 3.4 µM in data set [3] (human kidney cells (HKC), hOAT1-associated, read-out: Km of MTX transport across the BBM); 28.5 ± 1.1 µM in data set [3] (human kidney cells (HKC), hOAT1-associated, read-out: Km of MTX transport across the BLM); 554 to 724 µM with hOAT1; 10.9 to 21.1 µM in the data set with hOAT3 (hOAT3, MTX, read-out: Km); 17.8 µM with hOAT4; 220 to 1300 µM with hMRP4. The “Reduction of PAH BBM uptake” value with PKC [4] is “up to 30%”.

With `[Cl][Cd][Cl]` [cadmium chloride], the “Cytotoxicity on longer exposure” value in data set [1] (PKC, MTT, exposure >48 hours (data not shown)) is “did not result in further increased cytotoxicity”. In addition, the concentration giving a half-maximal response (EC50) in data set [1] (PKC, MTT, 24 hours of exposure) came out at 103 µM; in data set [1] (PKC, MTT, 48 hours of exposure), 57.2 µM.

Take `CCCN(CCC)S(=O)(=O)c1ccc(C(=O)O)cc1` [probenecid]: the “Inhibition of pOat1-mediated PAH uptake” value in the data set on pOat1 (1 mM) is “could be inhibited”. In addition, in the data set on pOat3, the “Inhibitory effect” value was “inhibitory effect”. The “Inhibition of PAH uptake from either direction (BBM or BLM)” value with PKC [4] is “did not show any inhibitory effect”.

Regarding `C[C@]12CC[C@H](OS(=O)(=O)O)CC1=CC[C@@H]1[C@@H]2CC[C@]2(C)C(=O)CC[C@@H]12` [dehydroepi-androsteron sulfate], in the data set on Oat1 or Oat3 (setting [5]), the “Stimulatory effect” value is “none of the tested substances showed any stimulatory effect”. In addition, in the data set on pOat3, the “Inhibitory effect” value is given as “inhibitory effect”.

On to `O=C1OC(c2ccc(O)c(S(=O)(=O)O)c2)(c2ccc(O)c(S(=O)(=O)O)c2)c2c(Br)c(Br)c(Br)c(Br)c21` [bromosulphophthalein], for which the “Stimulatory effect” value in the data set on Oat1 or Oat3 (setting [5]) is given as “none of the tested substances showed any stimulatory effect”. Further, in the data set with PKC [4], the “Reduction of PAH BBM uptake” value is on record as “up to 30%”.

For `C[C@]12CC[C@@H]3c4ccc(OS(=O)(=O)O)cc4CC[C@H]3[C@@H]1CCC2=O` [estrone sulfate], the Michaelis-Menten constant (Km) in the data set on pOat3 (pOat3 expressed in X. laevis oocytes, read-out: apparent Km) is 7.8 ± 1.3 µM; in the data set on hOAT3 (hOAT3, ES, read-out: Km), 3.1 to 9.5 µM; in the data set on OAT3 (SLC22A8) (ref supplement 1, read-out: KM (ES)), 2.3 to 5.3 µM. Moreover, the “Inhibition of PAH uptake from either direction (BBM or BLM)” value with PKC [4] is reported as “not able to inhibit PAH uptake”.
